This is an account of results in US8349844B2, “Substituted pyrazolo [1,5-A] pyrimidines as metabotropic glutamate antagonists” (Hoffmann-La Roche Inc., priority 2005, dated 2013).

In one series the target is T1, rat mGlu2 receptor (Rattus norvegicus, UniProt P31421).
T1 construct: expressed in transfected cells; membranes prepared from them
The experiment in a line: [3H]-LY354740 binding on mGlu2 transfected CHO cell membranes. Particulars: [3H]-LY354740 (10 nM) displacement. The text has this:
[^3H]-LY354740 Binding on mGlu2 Transfected CHO Cell Membranes. Transfection and Cell Culture
cDNA encoding the rat mGlu2 receptor protein in pBluescript II was subcloned into the eukaryotic expression vector pcDNA I-amp from Invitrogen Ltd (Paisley, UK). This vector construct (pcD1mGR2) was co-transfected with a psvNeo plasmid encoding the gene for neomycin resistance, into CHO cells by a modified calcium phosphate method described by Chen & Okayama (1988). The cells were maintained in Dulbecco's Modified Eagle medium with reduced L-glutamine (2 mM final concentration) and 10% dialysed foetal calf serum from Gibco-Invitrogen (Carlsbad, Calif., USA). Selection was made in the presence of G-418 (1000 ug/ml final) and […]. Clones were identified by reverse transcription of 5 μg total RNA, followed by PCR using mGlu2 receptor specific primers 5′-[…]-3′ and 5′-[…]-3′ in 60 mM Tris HCl (pH 10), 15 mM (NH4)2SO4, 2 mM MgCl2, 25 units/ml Taq Polymerase with 30 cycles annealing at 60° C. for 1 min., extention at 72° C. for 30 s, and 1 min. 95° C. denaturation.
Cells, cultured as above, were harvested and washed three times with cold PBS and frozen at −80° C. The pellet was resuspended in cold 20 mM HEPES-NaOH buffer containing 10 mM EDTA (pH 7.4), and homogenised with a polytron (Kinematica, A G, Littau, Switzerland) for 10 s at 10 000 rpm. After centrifugation for 30 min. at 4° C., the pellet was washed once with the same buffer, and once with cold 20 mM HEPES-NaOH buffer containing 0.1 mM EDTA, (pH 7.4). Protein content was measured using the micro BCA method from Pierce-Perbio (Rockford, Ill., USA) using bovine serum albumin as standard.
After thawing, the membranes were resuspended in cold 50 mM Tris-HCl buffer containing 2 mM MgCl2 (pH 7) (binding buffer). The final concentration of the membranes in the assays was 25 μg protein/ml. Inhibition experiments were performed with membranes incubated with 10 nM [^3H]-LY354740 at room temperature, for 1 hour, in presence of various concentrations of the compound to be tested. Following the incubations, membranes were filtered onto Whatmann GF/B glass fiber filters and washed 5 times with cold binding buffer. Non specific binding was measured in the presence of 10 μM DCG IV. After transfer of the filters into plastic vials containing 10 ml of Ultima-gold scintillation fluid from Perkin-Elmer (Boston, Mass., USA), the radioactivity was measured by liquid scintillation in a Tri-Garb 2500 TR counter (Packard, Zürich, Switzerland).
The inhibition curves were fitted with a four parameter logistic equation giving IC50 values, and Hill coefficients.

T1 sequence (P31421 19-872): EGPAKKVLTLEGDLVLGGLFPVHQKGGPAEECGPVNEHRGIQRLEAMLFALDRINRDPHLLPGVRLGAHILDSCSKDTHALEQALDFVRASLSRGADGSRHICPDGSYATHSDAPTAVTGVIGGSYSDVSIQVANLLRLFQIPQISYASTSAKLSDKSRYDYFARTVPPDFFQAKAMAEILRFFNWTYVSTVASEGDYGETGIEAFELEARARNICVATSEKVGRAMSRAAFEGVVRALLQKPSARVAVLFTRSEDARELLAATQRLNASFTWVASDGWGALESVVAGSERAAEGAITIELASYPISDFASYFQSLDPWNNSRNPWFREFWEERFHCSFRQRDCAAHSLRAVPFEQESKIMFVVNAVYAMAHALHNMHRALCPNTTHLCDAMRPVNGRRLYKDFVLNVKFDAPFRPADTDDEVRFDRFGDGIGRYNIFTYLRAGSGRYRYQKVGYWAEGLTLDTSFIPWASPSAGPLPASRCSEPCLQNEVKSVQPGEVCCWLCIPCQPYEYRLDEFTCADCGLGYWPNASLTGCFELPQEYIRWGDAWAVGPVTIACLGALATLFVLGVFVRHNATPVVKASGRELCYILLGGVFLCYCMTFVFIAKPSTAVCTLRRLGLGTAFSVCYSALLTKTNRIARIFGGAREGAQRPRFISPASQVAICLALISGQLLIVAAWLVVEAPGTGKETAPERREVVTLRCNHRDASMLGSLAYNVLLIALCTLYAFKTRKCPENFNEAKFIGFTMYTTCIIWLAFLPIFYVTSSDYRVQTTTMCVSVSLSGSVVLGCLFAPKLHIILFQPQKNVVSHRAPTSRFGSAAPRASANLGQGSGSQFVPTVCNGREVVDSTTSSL

For orientation: melting point means the temperature, or range, at which the solid turns liquid. A word on the Ki: it is a dissociation constant, usually derived from enzyme kinetics or from competition with a known ligand. Low values mean higher affinity, high ones lower affinity. For the compound `Cc1cc(-c2cc(C(F)F)n3ncc(-c4nc(-c5ccc(N)nc5)no4)c3n2)ccc1Cl` [Example 77, 5-{5-[5-(4-Chloro-3-methyl-phenyl)-7-difluoromethyl-pyrazolo[1,5-a]pyrimidin-3-yl]-[1,2,4]oxadiazol-3-yl}-pyridin-2-ylamine], the melting point was found to be 243 °C. The compound also had a Ki at rat mGlu2 receptor of 25.5 nM.

In turn, `Nc1ccc(-c2noc(-c3cnn4c(C(F)(F)F)cc(-c5cccc(C(F)(F)F)c5)nc34)n2)cn1` [Example 34, 5-{5-[7-Trifluoromethyl-5-(3-trifluoromethyl-phenyl)-pyrazolo[1,5-a]pyrimidin-3-yl]-[1,2,4]oxadiazol-3-yl}-pyridin-2-ylamine] yielded a melting point of 264 °C. The compound further returned an inhibitory constant (Ki) on rat mGlu2 receptor of 51 nM.

`NS(=O)(=O)c1ccc(-c2noc(-c3cnn4c(C(F)(F)F)cc(-c5ccc(C(F)(F)F)cc5)nc34)n2)cc1` [Example 1, 4-{5-[7-Trifluoromethyl-5-(4-trifluoromethyl-phenyl)-pyrazolo[1,5-a]pyrimidin-3-yl]-[1,2,4]oxadiazol-3-yl}-benzenesulfonamide] returned a melting point of 275 °C. The compound further yielded a Ki at rat mGlu2 receptor of 5.6 nM.

`NS(=O)(=O)c1cccc(-c2noc(-c3cnc4c(C(F)(F)F)cc(-c5ccc(C(F)(F)F)cc5)cn34)n2)c1` [Example 11, 3-{5-[8-Trifluoromethyl-6-(4-trifluoromethyl-phenyl)-imidazo[1,2-a]pyridin-3-yl]-[1,2,4]oxadiazol-3-yl}-benzenesulfonamide]: the melting point was determined as 297 °C. The same compound showed a Ki on rat mGlu2 receptor of 8.8 nM.

Regarding `Nc1ncc(-c2noc(-c3cnn4c(C(F)(F)F)cc(-c5ccc(C(F)(F)F)cc5)nc34)n2)cn1` [Example 46, 5-{5-[7-Trifluoromethyl-5-(4-trifluoromethyl-phenyl)-pyrazolo[1,5-a]pyrimidin-3-yl]-[1,2,4]oxadiazol-3-yl}-pyrimidin-2-ylamine], the melting point is 254 °C. Also, the affinity on rat mGlu2 receptor, expressed as Ki, was 14.5 nM.

In the case of `NS(=O)(=O)c1ccc(-c2noc(-c3cnn4c(C5CC5)cc(-c5ccc(Cl)cc5)nc34)n2)s1` [Example 20, 5-{5-[5-(4-Chloro-phenyl)-7-cydopropyl-pyrazolo[1,5-a]pyrimidin-3-yl]-[1,2,4]oxadiazol-3-yl}-thiophene-2-sulfonic acid amide], the melting point is 294 °C. At rat mGlu2 receptor, the inhibition constant Ki came out at 16.1 nM.

Consider `Cc1cc(-c2ccc(Cl)cc2)cn2c(-c3nc(-c4ccc(S(N)(=O)=O)s4)no3)cnc12` [Example 41, 5-{5-[6-(4-Chloro-phenyl)-8-methyl-imidazo[1,2-a]pyridin-3-yl]-[1,2,4]oxadiazol-3-yl}-thiophene-2-sulfonic acid amide], for which the melting point turned out to be 271 °C. For the same compound, the Ki on rat mGlu2 receptor is 21.3 nM.

The compound `Cc1cc(-c2ccc(C(F)(F)F)cc2)cn2c(-c3nc(-c4ccc(N)nc4)no3)cnc12` [Example 47, 5-{5-[8-Methyl-6-(4-trifluoromethyl-phenyl)-imidazo[1,2-a]pyridin-3-yl]-[1,2,4]oxadiazol-3-yl}-pyridin-2-ylamine] returned a melting point of 257 °C. On rat mGlu2 receptor, this compound gave a Ki of 7.7 nM.

The compound `NS(=O)(=O)c1ccc(-c2nc(-c3ncn4c(C(F)(F)F)cc(-c5ccc(C(F)(F)F)cc5)nc34)no2)cc1` [Example 21, 4-{3-[4-Trifluoromethyl-2-(4-trifluoromethyl-phenyl)-imidazo[1,5-a]pyrimidin-8-yl]-[1,2,4]oxadiazol-5-yl}-benzenesulfonamide] gave a melting point of 303 °C. On rat mGlu2 receptor, this compound registered a Ki of 10.2 nM.

For `NS(=O)(=O)c1ccc(-c2noc(-c3ncn4c(C(F)(F)F)cc(-c5ccc(C(F)(F)F)cc5)nc34)n2)s1` [Example 42, 5-{5-[4-Trifluoromethyl-2-(4-trifluoromethyl-phenyl)-imidazo[1,5-a]pyrimidin-8-yl]-[1,2,4]oxadiazol-3-yl}-thiophene-2-sulfonic acid amide], the melting point is 295 °C. On rat mGlu2 receptor, the Ki came to 14.6 nM.

Regarding `Cc1cc(-c2ccc(C(F)(F)F)cc2)cn2c(-c3nc(-c4cnc(N)nc4)no3)cnc12` [Example 48, 5-{5-[8-Methyl-6-(4-trifluoromethyl-phenyl)-imidazo[1,2-a]pyridin-3-yl]-[1,2,4]oxadiazol-3-yl}-pyrimidin-2-ylamine], the melting point is 302 °C. For the same compound, at rat mGlu2 receptor, the affinity corresponds to a Ki of 6.5 nM.

Consider `Nc1ccc(-c2noc(-c3cnn4c(C(F)(F)F)cc(-c5ccc(C(F)(F)F)c(OCC(F)(F)F)c5)nc34)n2)cn1` [Example 70, 5-(5-{5-[3-(2,2,2-Trifluoro-ethoxy)-4-trifluoromethyl-phenyl]-7-trifluoromethyl-pyrazolo[1,5-a]pyrimidin-3-yl}-[1,2,4]oxadiazol-3-yl)-pyridin-2-ylamine], for which the melting point was found to be 284 °C.

In turn, `Cc1cc(-c2ccc(Cl)cc2)nc2c(-c3nc(-c4cccc(S(N)(=O)=O)c4)no3)cnn12` [Example 38, 3-{5-[5-(4-Chloro-phenyl)-7-methyl-pyrazolo[1,5-a]pyrimidin-3-yl]-[1,2,4]oxadiazol-3-yl}-benzenesulfonamide] yielded a melting point of 275 °C.

`NS(=O)(=O)c1cccc(-c2nc(-c3cnn4c(C(F)(F)F)cc(-c5ccc(C(F)(F)F)cc5)nc34)no2)c1` [Example 15, 3-{3-[7-Trifluoromethyl-5-(4-trifluoromethyl-phenyl)-pyrazolo[1,5-a]pyrimidin-3-yl]-[1,2,4]oxadiazol-5-yl}-benzenesulfonamide] registered a melting point of 285 °C.

With `NS(=O)(=O)c1cccc(-c2noc(-c3cnc4ccc(-c5ccc(C(F)(F)F)cc5)cn34)n2)c1` [Example 51, 3-{5-[6-(4-Trifluoromethyl-phenyl)-imidazo[1,2-a]pyridin-3-yl]-[1,2,4]oxadiazol-3-yl}-benzenesulfonamide], the melting point turned out to be 288 °C.

`Cc1cc(-c2cc(C(F)(F)F)n3ncc(-c4nc(-c5ccc(S(N)(=O)=O)s5)no4)c3n2)ccc1C(F)(F)F` [Example 22, 5-{5-[5-(3-Methyl-4-trifluoromethyl-phenyl)-7-trifluoromethyl-pyrazolo[1,5-a]pyrimidin-3-yl]-[1,2,4]oxadiazol-3-yl}-thiophene-2-sulfonic acid amide]: the melting point came to 324 °C.

On to `Cc1cc(-c2cc(C(F)(F)F)n3ncc(-c4nc(-c5ccc(N)nc5)no4)c3n2)ccc1Cl` [Example 64, 5-{5-[5-(4-Chloro-3-methyl-phenyl)-7-trifluoromethyl-pyrazolo[1,5-a]pyrimidin-3-yl]-[1,2,4]oxadiazol-3-yl}-pyridin-2-ylamine], for which the melting point was found to be 262 °C.

The compound `Cc1cc(-c2ccc(C(F)(F)F)cc2)cn2c(-c3nc(-c4ccc(S(N)(=O)=O)cc4)no3)cnc12` [Example 43, 4-{5-[8-Methyl-6-(4-trifluoromethyl-phenyl)-imidazo[1,2-a]pyridin-3-yl]-[1,2,4]oxadiazol-3-yl}-benzenesulfonamide] returned a melting point of 290 °C.

The compound `FC(F)(F)c1ccc(-c2cc(C(F)(F)F)n3ncc(-c4nc(-c5cccnc5)no4)c3n2)cc1` [Example 3, 3-(3-Pyridin-3-yl-[1,2,4]oxadiazol-5-yl)-7-trifluoromethyl-5-(4-trifluoromethyl-phenyl)-pyrazolo[1,5-a]pyrimidine] had a melting point of 199 °C. Also, at rat mGlu2 receptor, the affinity, expressed as Ki, was 48.1 nM.

The compound `Nc1ccc(-c2noc(-c3cnn4c(C(F)(F)F)cc(-c5ccc(Cl)cc5)nc34)n2)cn1` [Example 62, 5-{5-[5-(4-Chloro-phenyl)-7-trifluoromethyl-pyrazolo[1,5-a]pyrimidin-3-yl]-[1,2,4]oxadiazol-3-yl}-pyridin-2-ylamine] showed a melting point of 253 °C.

Turning to `NS(=O)(=O)c1ccc(-c2nc(-c3cnn4c(C(F)(F)F)cc(-c5ccc(C(F)(F)F)cc5)nc34)no2)s1` [Example 33, 5-{3-[7-Trifluoromethyl-5-(4-trifluoromethyl-phenyl)-pyrazolo[1,5-a]pyrimidin-3-yl]-[1,2,4]oxadiazol-5-yl}-thiophene-2-sulfonic acid amide], the melting point was 272 °C.

The compound `Nc1ccc(-c2noc(-c3cnn4c(C(F)(F)F)cc(-c5ccc(C(F)(F)F)cc5)nc34)n2)cn1` [Example 35, 5-{5-[7-Trifluoromethyl-5-(4-trifluoromethyl-phenyl)-pyrazolo[1,5-a]pyrimidin-3-yl]-[1,2,4]oxadiazol-3-yl}-pyridin-2-ylamine] showed a melting point of 257 °C.
